Measured values published in the supplement of paper PMC5908809.

Key:
[1] = system: normal primary NK cells, pool 1 (3 donors) (IL-2 2.5 ng/mL); test: percent inhibition of viability; higher = more inhibition; details: 72 h
[2] = system: normal primary NK cells, pool 3 (3 donors) (IL-2 2.5 ng/mL); test: as above; details: 72 h
[3] = system: normal primary NK cells, pool 1 (3 donors), resting (IL-2 0 ng/mL); test: as above; details: 72 h
NKL (IL-2 2.5 ng/mL) [4] = test: as above; details: 72 h
NK-YS (IL-2 2.5 ng/mL) [5] = test: as above; details: 72 h
SNK-6 (IL-2 2.5 ng/mL) [6] = test: as above; details: 72 h
IMC-1 (IL-2 20 ng/mL) [7] = test: as above; details: 72 h
KAI3 (IL-2 2.5 ng/mL) [8] = test: as above; details: 72 h
DERL-7 (IL-2 2.5 ng/mL) [9] = test: as above; details: 72 h
KHYG-1 (IL-2 2.5 ng/mL) [10] = test: as above; details: 72 h
NK-92 (IL-2 2.5 ng/mL) [11] = test: as above; details: 72 h
[12] = system: normal primary NK cells, pool 2 (3 donors) (IL-2 2.5 ng/mL); test: as above; details: 72 h
YT (IL-2 2.5 ng/mL) [13] = test: as above; details: 72 h
[14] = system: normal NK cells expanded with K562-aAPC; test: as above; details: 72 h, IL-2 2.5 ng/mL
Procedure: (§1)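 Drug sensitivity and resistance testing on K562-aAPC-expanded normal NK cells: 5 concentrations (10-fold steps over a 10,000-fold range), 72 h at 37 °C, viability by CellTiter-Glo normalised to DMSO and benzethonium chloride controls; DSS from the fitted curve.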

[15] = system: normal NK cells expanded with K562-aAPC; test: drug sensitivity score (DSS) (DSS units); higher = more sensitive; extreme values may be limits of the assay; details: 72 h; IL-2 2.5 ng/mL
Procedure: as §1

[16] = system: normal primary NK cells, pool 1 (3 donors) (IL-2 2.5 ng/mL); test: as above; details: 72 h
[17] = system: normal primary NK cells, pool 3 (3 donors) (IL-2 2.5 ng/mL); test: as above; details: 72 h
[18] = system: normal primary NK cells, pool 1 (3 donors), resting (IL-2 0 ng/mL); test: as above; details: 72 h
NKL (IL-2 2.5 ng/mL) [19] = test: as above; details: 72 h
NK-YS (IL-2 2.5 ng/mL) [20] = test: as above; details: 72 h
SNK-6 (IL-2 2.5 ng/mL) [21] = test: as above; details: 72 h
IMC-1 (IL-2 20 ng/mL) [22] = test: as above; details: 72 h
KAI3 (IL-2 2.5 ng/mL) [23] = test: as above; details: 72 h
DERL-7 (IL-2 2.5 ng/mL) [24] = test: as above; details: 72 h
KHYG-1 (IL-2 2.5 ng/mL) [25] = test: as above; details: 72 h
NK-92 (IL-2 2.5 ng/mL) [26] = test: as above; details: 72 h
[27] = system: normal primary NK cells, pool 2 (3 donors) (IL-2 2.5 ng/mL); test: as above; details: 72 h
YT (IL-2 2.5 ng/mL) [28] = test: as above; details: 72 h

CN(C[C@@H]1COCCO1)S(=O)(=O)Nc1ccc2ccc3ncc(-c4cnn(C)c4)cc3c(=O)c2c1 [MK-2461] (max concentration tested 10000 nM)
percent inhibition of viability [%]
Details	1 nM	10 nM	100 nM	1000 nM	10000 nM
DERL-7 (IL-2 2.5 ng/mL) [9]	-6.68	-3.14	-6.19	10.2	52.8
IMC-1 (IL-2 20 ng/mL) [7]	1.71	-0.63	3.27	-5.3	-50.1
KAI3 (IL-2 2.5 ng/mL) [8]	-1.76	-2.96	7.38	21.6	44.7
KHYG-1 (IL-2 2.5 ng/mL) [10]	-0.18	-3.51	-0.87	6.75	44.4
NK-92 (IL-2 2.5 ng/mL) [11]	1.01	-5.16	-10.7	7.81	9.19
NK-YS (IL-2 2.5 ng/mL) [5]	0.46	-3.34	-0.08	3.95	33.3
NKL (IL-2 2.5 ng/mL) [4]	-3.44	-1.59	-12	8.79	30
SNK-6 (IL-2 2.5 ng/mL) [6]	0.33	-7.16	-3.05	-24.8	19.4
YT (IL-2 2.5 ng/mL) [13]	-0.04	-0.58	-1.61	0.19	10.3
[1]	-3.44	-9.95	-8.02	-7.44	21.8
[2]	-12.9	-6.11	-6.1	-12.5	-1.21
[3]	-17.8	-18.1	-32.3	-29.1	26.9
[12]	-7.85	-3.63	-2.59	-2.71	16.6
[14]	2.16	-3.15	-5.97	-1.83	29.5

Details	drug sensitivity score
DERL-7 (IL-2 2.5 ng/mL) [24]	4.49
IMC-1 (IL-2 20 ng/mL) [22]	0
KAI3 (IL-2 2.5 ng/mL) [23]	4.68
KHYG-1 (IL-2 2.5 ng/mL) [25]	3.41
NK-92 (IL-2 2.5 ng/mL) [26]	0
NK-YS (IL-2 2.5 ng/mL) [20]	2.18
NKL (IL-2 2.5 ng/mL) [19]	2.56
SNK-6 (IL-2 2.5 ng/mL) [21]	0.21
YT (IL-2 2.5 ng/mL) [28]	0
[15]	1.13
[16]	0.46
[17]	0
[18]	0.54
[27]	0.24

O=C(c1cccc(Cl)c1F)N1CCN(Cc2cccc(Nc3nccs3)n2)CC1 [MK-8745] (max concentration tested 2500 nM)
percent inhibition of viability [%]
Details	0.25 nM	2.5 nM	25 nM	250 nM	2500 nM
DERL-7 (IL-2 2.5 ng/mL) [9]	-8.45	2.62	1.62	22	83.1
IMC-1 (IL-2 20 ng/mL) [7]	-1.25	-4.64	-0.96	2.91	66.8
KAI3 (IL-2 2.5 ng/mL) [8]	-2.71	2.86	-1.01	18.3	36.5
KHYG-1 (IL-2 2.5 ng/mL) [10]	-1.65	-5.36	-0.69	6.09	44.4
NK-92 (IL-2 2.5 ng/mL) [11]	-12.1	-7.81	-0.68	8.86	26.2
NK-YS (IL-2 2.5 ng/mL) [5]	-0.85	-3.89	-0.06	38.4	61.3
NKL (IL-2 2.5 ng/mL) [4]	-14.5	-12.8	-23.9	17.2	40.3
SNK-6 (IL-2 2.5 ng/mL) [6]	-0.59	0.91	-4.8	47.9	76.6
YT (IL-2 2.5 ng/mL) [13]	-0.09	-1.63	-2.07	7.04	49.4
[1]	-9.49	-9.51	-7.79	0.54	-4.11
[2]	-9.39	-6.67	-11.6	-9.93	-1.62
[3]	-8.12	-10.6	-11.2	9.28	-1.15
[12]	-9.44	-9.06	-12.7	-6.66	-1.81
[14]	-2.18	-4.25	-9.82	1.43	48.4

Details	drug sensitivity score
DERL-7 (IL-2 2.5 ng/mL) [24]	7.96
IMC-1 (IL-2 20 ng/mL) [22]	4.06
KAI3 (IL-2 2.5 ng/mL) [23]	4.06
KHYG-1 (IL-2 2.5 ng/mL) [25]	3.3
NK-92 (IL-2 2.5 ng/mL) [26]	2.22
NK-YS (IL-2 2.5 ng/mL) [20]	7.96
NKL (IL-2 2.5 ng/mL) [19]	4.29
SNK-6 (IL-2 2.5 ng/mL) [21]	9.92
YT (IL-2 2.5 ng/mL) [28]	3.79
[15]	2.71
[16]	0
[17]	0.89
[18]	0
[27]	0.89
